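Cells were grown in 96-well plates and exposed to each compound for 48 hours at five concentrations; endpoints were interpolated linearly between bracketing concentrations, or set to the highest concentration if not reached. GI50: concentration for 50% inhibition of growth.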 Active and inactive are the calls of the source. Cut-off read from the data, not from the text of the source: active = GI50 up to about 1.1 µM and inactive = higher.
Experiments:
Assay in all cases: DTP human tumour cell line panel, 48 h
DMS-273 = system: DMS-273
MOLT-4 = system: MOLT-4
UACC-62 = system: UACC-62
HT-29 = system: HT-29
UACC-257 = system: UACC-257
786-0 = system: 786-0
OVCAR-4 = system: OVCAR-4
NCI-H226 = system: NCI-H226
SK-OV-3 = system: SK-OV-3
SW-620 = system: SW-620
SK-MEL-2 = system: SK-MEL-2
SF-268 = system: SF-268
U-251 = system: U-251
ACHN = system: ACHN
RPMI-8226 = system: RPMI-8226
KM-20L2 = system: KM-20L2
SNB-75 = system: SNB-75
COLO 205 = system: COLO 205
SK-MEL-28 = system: SK-MEL-28
SK-MEL-5 = system: SK-MEL-5
RXF 631 = system: RXF 631
TK-10 = system: TK-10
M14 = system: M14
NCI-H522 = system: NCI-H522
HCT-15 = system: HCT-15
Malme-3M = system: Malme-3M
NCI-H23 = system: NCI-H23
HCC 2998 = system: HCC 2998
RXF 393 = system: RXF 393
HOP-92 = system: HOP-92
CAKI-1 = system: CAKI-1
SN12C = system: SN12C
DMS-114 = system: DMS-114
SF-295 = system: SF-295
OVCAR-5 = system: OVCAR-5
CCRF-CEM = system: CCRF-CEM
SF-539 = system: SF-539
HL-60 = system: HL-60
SNB-19 = system: SNB-19
HCT-116 = system: HCT-116
HOP-62 = system: HOP-62
K562 = system: K562
EKVX = system: EKVX
LXFL 529 = system: LXFL 529
A498 = system: A498
M19-MEL = system: M19-MEL
SNB-78 = system: SNB-78
OVCAR-3 = system: OVCAR-3
IGROV-1 = system: IGROV-1
NCI-H460 = system: NCI-H460
A549 = system: A549
OVCAR-8 = system: OVCAR-8
KM12 = system: KM12
UO-31 = system: UO-31
SR = system: SR
DLD-1 = system: DLD-1
XF498 = system: XF498
LOX IMVI = system: LOX IMVI
HOP-18 = system: HOP-18
MDA-N = system: MDA-N
PC-3 = system: PC-3
MDA-MB-231 = system: MDA-MB-231
Hs-578T = system: Hs-578T
BT-549 = system: BT-549
NCI/ADR-RES = system: NCI/ADR-RES
MDA-MB-435 = system: MDA-MB-435
T47D = system: T47D
MCF7 = system: MCF7
DU-145 = system: DU-145

Measured: GI50

CCN(CC)C(c1ccc(N(C)C)cc1)C(c1ccc(N(C)C)cc1)N(CC)CC (configuration not stated)
30.2 µM: HCT-15
inactive: DMS-273 44.8 µM | MOLT-4 30.3 µM | UACC-62 20.1 µM | HT-29 21.6 µM | UACC-257 36.6 µM | 786-0 61.2 µM | OVCAR-4 12.9 µM | NCI-H226 27.3 µM | SK-OV-3 > 72.9 µM | SW-620 21.4 µM | SK-MEL-2 22.8 µM | SF-268 65 µM | U-251 > 72.9 µM | ACHN 47 µM | RPMI-8226 21.9 µM | KM-20L2 64 µM | SNB-75 14.2 µM | COLO 205 43.3 µM | SK-MEL-28 26.4 µM | SK-MEL-5 16.8 µM | RXF 631 > 72.9 µM | TK-10 > 72.9 µM | M14 33.3 µM | NCI-H522 > 7.29 µM | Malme-3M 17 µM | NCI-H23 48.3 µM | HCC 2998 40.4 µM | RXF 393 25.9 µM | HOP-92 13.2 µM | CAKI-1 25.9 µM | SN12C > 72.9 µM | DMS-114 14.5 µM | SF-295 39.2 µM | OVCAR-5 > 72.9 µM | CCRF-CEM 26 µM | SF-539 36.5 µM | HL-60 14.8 µM | SNB-19 62.8 µM | HCT-116 35.2 µM | HOP-62 61.5 µM | K562 15.8 µM | EKVX > 72.9 µM | LXFL 529 30.3 µM | A498 > 72.9 µM | M19-MEL 23.9 µM | SNB-78 21.2 µM | OVCAR-3 21.5 µM | IGROV-1 47.6 µM | NCI-H460 69.2 µM | A549 > 72.9 µM | OVCAR-8 > 72.9 µM | KM12 22.9 µM

COc1ccc(C(=O)N/N=C/c2c(C)n(C)n(-c3ccccc3)c2=O)cc1
> 100 µM: HCT-15
inactive: DMS-273 > 100 µM | MOLT-4 > 100 µM | UACC-62 > 100 µM | HT-29 > 100 µM | UACC-257 > 100 µM | 786-0 > 100 µM | OVCAR-4 > 100 µM | NCI-H226 > 100 µM | SK-OV-3 > 100 µM | SW-620 > 100 µM | UO-31 > 100 µM | SK-MEL-2 > 100 µM | SF-268 > 100 µM | U-251 > 100 µM | ACHN > 100 µM | RPMI-8226 > 100 µM | KM-20L2 > 100 µM | SR > 100 µM | SNB-75 > 100 µM | COLO 205 > 100 µM | SK-MEL-28 > 100 µM | TK-10 > 100 µM | DLD-1 > 100 µM | M14 > 100 µM | NCI-H522 > 100 µM | Malme-3M > 100 µM | NCI-H23 > 100 µM | HCC 2998 > 100 µM | RXF 393 > 100 µM | HOP-92 > 100 µM | SN12C > 100 µM | DMS-114 > 100 µM | SF-295 > 100 µM | CCRF-CEM > 100 µM | SF-539 > 100 µM | HL-60 > 100 µM | SNB-19 > 100 µM | HCT-116 > 100 µM | HOP-62 > 100 µM | K562 > 100 µM | EKVX > 100 µM | LXFL 529 > 100 µM | A498 > 100 µM | M19-MEL > 100 µM | SNB-78 > 100 µM | OVCAR-3 > 100 µM | XF498 > 100 µM | LOX IMVI > 100 µM | IGROV-1 > 100 µM | HOP-18 > 100 µM | NCI-H460 > 100 µM | A549 > 100 µM | OVCAR-8 > 100 µM | KM12 > 100 µM

O=C1/C=C(/c2ccc(O)cc2)[C@@H](O)Cc2ccc(O)cc2O1
active: NCI-H226 0.859 µM
inactive: UACC-62 31 µM | HT-29 > 100 µM | UACC-257 > 100 µM | 786-0 > 100 µM | OVCAR-4 > 100 µM | SK-OV-3 35.7 µM | SW-620 > 100 µM | UO-31 85.3 µM | SK-MEL-2 > 100 µM | SF-268 45.1 µM | U-251 > 100 µM | ACHN 92.7 µM | KM-20L2 > 100 µM | SR 56.1 µM | COLO 205 > 100 µM | SK-MEL-5 > 100 µM | RXF 631 38.2 µM | TK-10 > 100 µM | DLD-1 > 100 µM | M14 > 100 µM | NCI-H522 54.8 µM | Malme-3M > 100 µM | NCI-H23 > 100 µM | CAKI-1 29.1 µM | SN12C 85.9 µM | DMS-114 51.3 µM | SF-295 93.1 µM | OVCAR-5 > 100 µM | SF-539 52.5 µM | SNB-19 93.5 µM | HCT-116 > 100 µM | HOP-62 61.4 µM | EKVX > 100 µM | LXFL 529 63.7 µM | A498 2.25 µM | M19-MEL > 100 µM | SNB-78 41.8 µM | OVCAR-3 > 100 µM | LOX IMVI 92.3 µM | IGROV-1 > 100 µM | NCI-H460 62.4 µM | A549 56.1 µM | OVCAR-8 > 100 µM | KM12 88.1 µM
> 100 µM: HCT-15

COC(COC(N)=O)C1=C(N2CC2)C(=O)C(C)=C(N2CC2)C1=O (configuration not stated) [CARBOQUONE]
0.0594 µM: HCT-15
active: DMS-273 < 0.01 µM | MOLT-4 0.0418 µM | MDA-N 0.108 µM | UACC-62 < 0.0156 µM | PC-3 0.213 µM | MDA-MB-231 0.292 µM | HT-29 0.0342 µM | UACC-257 0.126 µM | Hs-578T 0.218 µM | 786-0 0.0201 µM | OVCAR-4 0.126 µM | NCI-H226 0.0719 µM | SK-OV-3 0.0718 µM | SW-620 0.0302 µM | UO-31 0.0307 µM | BT-549 0.103 µM | SK-MEL-2 0.193 µM | SF-268 < 0.016 µM | U-251 0.0366 µM | ACHN < 0.01 µM | NCI/ADR-RES 0.0241 µM | RPMI-8226 0.117 µM | KM-20L2 0.0608 µM | SR < 0.0221 µM | SNB-75 0.0246 µM | COLO 205 0.113 µM | SK-MEL-28 0.172 µM | SK-MEL-5 0.046 µM | TK-10 0.239 µM | DLD-1 0.113 µM | M14 0.0395 µM | NCI-H522 0.0377 µM | Malme-3M 0.0692 µM | NCI-H23 < 0.0148 µM | HCC 2998 0.131 µM | RXF 393 0.107 µM | HOP-92 0.219 µM | CAKI-1 < 0.0119 µM | MDA-MB-435 0.0359 µM | SN12C < 0.0266 µM | DMS-114 0.063 µM | SF-295 0.0178 µM | OVCAR-5 0.106 µM | CCRF-CEM 0.0355 µM | SF-539 < 0.0198 µM | HL-60 < 0.0114 µM | SNB-19 0.0646 µM | HCT-116 0.0284 µM | HOP-62 < 0.0154 µM | K562 0.0352 µM | EKVX 0.47 µM | LXFL 529 0.196 µM | A498 0.0904 µM | M19-MEL 0.0968 µM | SNB-78 0.574 µM | T47D 0.0435 µM | OVCAR-3 0.0607 µM | XF498 0.154 µM | MCF7 < 0.01 µM | DU-145 < 0.01 µM | LOX IMVI < 0.0144 µM | IGROV-1 0.197 µM | HOP-18 0.199 µM | NCI-H460 < 0.01 µM | A549 0.0185 µM | OVCAR-8 0.0318 µM | KM12 0.122 µM

— ChEMBL document CHEMBL1201862, “PubChem BioAssay data set” (2004)
